The target of the assay is Transcription factor p65 (Mus musculus) (UniProt Q04207). In words: Inhibition of TNFalpha/IL-1beta-induced NFkB p65 translocation from cytosol to nucleus in mouse MIN6 cells at 50 uM after 30 mins by immunofluorescence based high content imaging analysis. The class given is cell-based.

Active and inactive are the calls of the source. The calls are words filed in the database; no cut-off is given here.

Chain of Transcription factor p65 (Mus musculus) (Q04207 whole entry): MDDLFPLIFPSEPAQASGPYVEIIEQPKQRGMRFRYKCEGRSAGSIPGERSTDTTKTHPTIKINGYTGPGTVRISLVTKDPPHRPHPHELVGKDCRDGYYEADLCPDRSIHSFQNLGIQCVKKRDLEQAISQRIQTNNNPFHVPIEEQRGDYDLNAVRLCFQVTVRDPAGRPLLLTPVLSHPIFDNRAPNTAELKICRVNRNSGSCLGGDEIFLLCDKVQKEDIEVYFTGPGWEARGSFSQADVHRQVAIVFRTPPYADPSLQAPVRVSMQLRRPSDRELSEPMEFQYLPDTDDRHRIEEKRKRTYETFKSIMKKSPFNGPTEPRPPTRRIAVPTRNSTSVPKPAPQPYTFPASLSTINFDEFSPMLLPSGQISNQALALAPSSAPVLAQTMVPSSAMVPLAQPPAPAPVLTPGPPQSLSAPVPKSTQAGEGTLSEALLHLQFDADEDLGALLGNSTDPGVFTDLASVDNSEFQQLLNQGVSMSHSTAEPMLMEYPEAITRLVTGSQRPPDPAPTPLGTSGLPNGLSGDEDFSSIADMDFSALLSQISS

With `COc1cc(O)cc(O)c1C(=O)/C=C/c1ccc(O)cc1`, the inhibition result is “Active”.

The values are drawn from ChEMBL document CHEMBL4330156, “Amides and Flavonoids from the Fruit and Leaf Extracts of Melodorum siamensis” (J Nat Prod, 2019).
